Results: patent US5087439A, “Paramagnetic metal-diethylenetriamine-pentaacetic acid partial amide complexes for magnetic resonance imaging” (Salutar, Inc., priority 1989, dated 1992)

What was measured:
[1] = Relaxivity (T1, T2) of the compound in human plasma at 10 MHz (37° C.); type: physicochemical; settings: for T1 Plasma / T2 Plasma: 10 MHz, 37° C.
Description: (§1) Relaxivity of the compound in water and in human plasma at 10 MHz (37° C.) (for practical purposes, the lower the T1 in a given part of the body, the brighter the image in MR imaging):
(§2) *T1 and T2 are relaxtion times in msec.

[2] = Relaxivity (T1, T2) of the compound in water at 10 MHz (37° C.); type: physicochemical
Description: as §1, §2

[3] = vs prior art compound, same dosage, from blood T1 at 20 minutes
Description: Pharmacokinetics of the compound in a pure breed beagle dog
A male dog was injected with the test compounds at 100 μ mol/kg. Blood was drawn at the indicated times. The plasma was separated and the relaxivity measured.

[4] = Organ distribution of the compound in male rabbits (organ T1 measured in vitro at 5 MHz); settings: 100 μmol/kg; for T1, Skeletal Muscle: male rabbits, 15 min post injection, 5 MHz
Description: The test compounds were injected into male rabbits at 100 μmol/kg. The rabbits were sacrificed at 15 minutes post injection and the relaxivity of internal organs was measured in vitro at 5 MHz.
The test compounds were injected into male rabbits at 100 μ mol/kg. The rabbits were sacrificed at 15 minutes post injection and the relaxivity of internal organs was measured in vitro at 5 MHz.

For `CCCCCCNC(=O)CN(CCN(CCN(CC(=O)[O-])CC(=O)NCCCCCC)CC(=O)[O-])CC(=O)[O-].[Gd+3]` [Gd DTPA-bishexylamide], which “T1 Plasma” value ([1]; 1.17 × 10^-3 M) is on record?
The value was 83 ms.

And the “T2 Plasma” value ([1]; 1.17 × 10^-3 M)?
The value was 71 ms.

And the “T1 Plasma” value ([1]; 1.46 × 10^-4 M)?
Its value is 403 ms.

And the “T1 Plasma” value ([1]; 1.82 × 10^-5 M)?
The value was 1087 ms.

What about the “T1 Plasma” value ([1]; 2.34 × 10^-3 M) of the same compound?
Its value is 48 ms.

And the “T2 Plasma” value ([1]; 2.34 × 10^-3 M)?
The value was 39 ms.

And the “T1 Plasma” value ([1]; 2.92 × 10^-4 M)?
The value was 249 ms.

And the “T1 Plasma” value ([1]; 3.68 × 10^-5 M)?
Its value is 881 ms.

And the “T1 Plasma” value ([1]; 4.67 × 10^-3 M)?
The value was 26 ms.

What about the “T2 Plasma” value ([1]; 4.67 × 10^-3 M) of the same compound?
Its value is 21 ms.

And the “T1 Plasma” value ([1]; 5.84 × 10^-4 M)?
Its value is 145 ms.

What about the “T2 Plasma” value ([1]; 5.84 × 10^-4 M) of the same compound?
The value was 123 ms.

What about the “T1 Plasma” value ([1]; 7.30 × 10^-5 M) of the same compound?
Its value is 622 ms.

What about the “T1 Plasma” value ([1]; 9.12 × 10^-6 M) of the same compound?
The value was 1220 ms.

What about the “T1 Plasma” value ([1]; 9.34 × 10^-3 M) of the same compound?
The value was 15 ms.

And the “T2 Plasma” value ([1]; 9.34 × 10^-3 M)?
The value was 10 ms.

And the “proton relaxation in plasma compared with the prior art compound” value ([1]; vs Gd DTPA-di(N-methylglucamine), human plasma)?
The value was “almost three times better”.

What about the “T1 Water” value ([2]; 1.17 × 10^-3 M) of the same compound?
The value was 159 ms.

What about the “T2 Water” value ([2]; 1.17 × 10^-3 M) of the same compound?
The value was 147 ms.

What about the “T1 Water” value ([2]; 1.46 × 10^-4 M) of the same compound?
Its value is 947 ms.

And the “T1 Water” value ([2]; 2.34 × 10^-3 M)?
The value was 81 ms.

And the “T2 Water” value ([2]; 2.34 × 10^-3 M)?
The value was 76 ms.

What about the “T1 Water” value ([2]; 2.92 × 10^-4 M) of the same compound?
The value was 561 ms.

What about the “T1 Water” value ([2]; 4.67 × 10^-3 M) of the same compound?
The value was 42 ms.

And the “T2 Water” value ([2]; 4.67 × 10^-3 M)?
The value was 36 ms.

What about the “T1 Water” value ([2]; 5.84 × 10^-4 M) of the same compound?
Its value is 309 ms.

And the “T1 Water” value ([2]; 7.30 × 10^-5 M)?
Its value is 1374 ms.

What about the “T1 Water” value ([2]; 9.34 × 10^-3 M) of the same compound?
The value was 23 ms.

And the “T2 Water” value ([2]; 9.34 × 10^-3 M)?
Its value is 18 ms.

And the “improvement in image signal intensity” value [3]?
The value was “two-fold”.

What about the “T1, Skeletal Muscle” value [4] of the same compound?
The value was 397 ms.

With `C[NH2+]C[C@H](O)[C@@H](O)[C@H](O)[C@H](O)CO.C[NH2+]C[C@H](O)[C@@H](O)[C@H](O)[C@H](O)CO.O=C([O-])CN(CCN(CC(=O)[O-])CC(=O)[O-])CCN(CC(=O)[O-])CC(=O)[O-].[Gd+3]` [Gd DTPA-di(N-methylglucamine), reference compound] as the compound, how does the “T1 Plasma” value ([1]; 1.56 × 10^-3 M) read?
The value was 134 ms.

What about the “T2 Plasma” value ([1]; 1.56 × 10^-3 M) of the same compound?
The value was 116 ms.

What about the “T1 Plasma” value ([1]; 1.95 × 10^-4 M) of the same compound?
The value was 636 ms.

What about the “T1 Plasma” value ([1]; 3.13 × 10^-3 M) of the same compound?
Its value is 69 ms.

What about the “T2 Plasma” value ([1]; 3.13 × 10^-3 M) of the same compound?
The value was 61 ms.

And the “T1 Plasma” value ([1]; 3.91 × 10^-4 M)?
The value was 405 ms.

What about the “T1 Plasma” value ([1]; 6.25 × 10^-3 M) of the same compound?
The value was 39 ms.

And the “T2 Plasma” value ([1]; 6.25 × 10^-3 M)?
The value was 31 ms.

What about the “T1 Plasma” value ([1]; 7.81 × 10^-4 M) of the same compound?
Its value is 240 ms.

And the “T1 Plasma” value ([1]; 9.77 × 10^-5 M)?
The value was 877 ms.

What about the “T1 Water” value ([2]; 1.56 × 10^-3 M) of the same compound?
Its value is 163 ms.

And the “T2 Water” value ([2]; 1.56 × 10^-3 M)?
The value was 155 ms.

What about the “T1 Water” value ([2]; 1.95 × 10^-4 M) of the same compound?
The value was 1015 ms.

And the “T1 Water” value ([2]; 3.13 × 10^-3 M)?
Its value is 83 ms.

And the “T2 Water” value ([2]; 3.13 × 10^-3 M)?
The value was 76 ms.

What about the “T1 Water” value ([2]; 3.91 × 10^-4 M) of the same compound?
The value was 582 ms.

What about the “T1 Water” value ([2]; 6.25 × 10^-3 M) of the same compound?
Its value is 40 ms.

And the “T2 Water” value ([2]; 6.25 × 10^-3 M)?
The value was 35 ms.

And the “T1 Water” value ([2]; 7.81 × 10^-4 M)?
Its value is 309 ms.

And the “T1, Skeletal Muscle” value [4]?
Its value is 405 ms.

What about the “change in spin lattice (T1) relaxation in the heart and liver” value ([4]; rabbits, 15 min, heart and liver) of the same compound?
The value was “fails to produce any change”.
